Measured values published in PubChem BioAssay (NCI).
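Grown in 96-well plates, cells were treated for 48 hours with each compound at five concentrations. Insufficient inhibition: endpoint recorded as highest concentration tested. GI50 marks 50% less growth. TGI marks complete inhibition of growth.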

Tests used:
Assay in all cases: NCI tumour cell line growth inhibition, 48 h
ACHN renal = system: ACHN renal
HT29 colon = system: HT29 colon
LOX IMVI melanoma = system: LOX IMVI melanoma
M14 melanoma = system: M14 melanoma
MOLT-4 leukemia = system: MOLT-4 leukemia
NCI-H226 lung = system: NCI-H226 lung
SK-MEL-5 melanoma = system: SK-MEL-5 melanoma
CAKI-1 renal = system: CAKI-1 renal
OVCAR-4 ovarian = system: OVCAR-4 ovarian
MCF7 breast = system: MCF7 breast

CC1CC[P+](c2ccccc2)(c2ccccc2)CC1
TGI (ACHN renal): > 100 µM | TGI (HT29 colon): > 100 µM | TGI (LOX IMVI melanoma): > 100 µM | TGI (M14 melanoma): > 100 µM | TGI (MOLT-4 leukemia): > 100 µM | TGI (NCI-H226 lung): > 100 µM | TGI (SK-MEL-5 melanoma): 51.1 µM

COC[C@H](C)N=CN1CCc2ccccc2C1(Cc1ccccc1)Cc1ccccc1
TGI (ACHN renal): 59.8 µM | TGI (CAKI-1 renal): 44.3 µM | TGI (HT29 colon): 20.1 µM | TGI (M14 melanoma): 22.7 µM | TGI (MOLT-4 leukemia): 37.9 µM | TGI (NCI-H226 lung): 37 µM | TGI (OVCAR-4 ovarian): 35.6 µM | TGI (SK-MEL-5 melanoma): > 100 µM

COC(=O)C(/C(=N\NC(N)=S)C(=O)Nc1ccccc1[N+](=O)[O-])c1cnc2ccccc2n1 (stereo unspecified)
TGI (ACHN renal): > 100 µM | TGI (CAKI-1 renal): > 100 µM | TGI (HT29 colon): > 100 µM | TGI (LOX IMVI melanoma): > 100 µM | TGI (M14 melanoma): > 100 µM | TGI (MOLT-4 leukemia): > 100 µM | TGI (NCI-H226 lung): > 100 µM | TGI (OVCAR-4 ovarian): > 100 µM | TGI (SK-MEL-5 melanoma): > 100 µM

c1ccc2c(NCCCCCCNc3cccc4ccccc34)cccc2c1
TGI (ACHN renal): > 100 µM | TGI (CAKI-1 renal): > 100 µM | TGI (HT29 colon): > 100 µM | TGI (M14 melanoma): > 100 µM | TGI (MOLT-4 leukemia): > 100 µM | TGI (NCI-H226 lung): > 100 µM | TGI (OVCAR-4 ovarian): > 100 µM | TGI (SK-MEL-5 melanoma): > 100 µM

CCC[CH2][Pb]([Cl])([CH2]CCC)[CH2]CCC
GI50 (ACHN renal): 0.0221 µM | TGI (ACHN renal): 0.0558 µM | GI50 (CAKI-1 renal): 0.0673 µM | TGI (CAKI-1 renal): 0.199 µM | GI50 (HT29 colon): 0.0252 µM | TGI (HT29 colon): 0.0645 µM | GI50 (LOX IMVI melanoma): 0.0223 µM | TGI (LOX IMVI melanoma): 0.045 µM | GI50 (M14 melanoma): 0.0192 µM | TGI (M14 melanoma): 0.0417 µM | GI50 (MCF7 breast): 0.0161 µM | TGI (MCF7 breast): 0.0361 µM | GI50 (MOLT-4 leukemia): 0.0245 µM | TGI (MOLT-4 leukemia): 0.731 µM | GI50 (OVCAR-4 ovarian): 0.0472 µM | TGI (OVCAR-4 ovarian): 0.184 µM | GI50 (SK-MEL-5 melanoma): 0.0534 µM | TGI (SK-MEL-5 melanoma): 0.128 µM

Nc1c(F)cc(-c2nc3cc(F)ccc3[se]2)cc1Br
GI50 (ACHN renal): 2 µM | TGI (ACHN renal): > 100 µM | GI50 (HT29 colon): 0.0651 µM | GI50 (LOX IMVI melanoma): 14.1 µM | TGI (LOX IMVI melanoma): > 100 µM | GI50 (M14 melanoma): 16.5 µM | TGI (M14 melanoma): > 100 µM | GI50 (MCF7 breast): 0.0267 µM | TGI (MCF7 breast): > 100 µM | GI50 (MOLT-4 leukemia): > 46.5 µM | TGI (MOLT-4 leukemia): > 100 µM | GI50 (NCI-H226 lung): 0.0484 µM | TGI (NCI-H226 lung): 2.06 µM | GI50 (OVCAR-4 ovarian): 0.15 µM | TGI (OVCAR-4 ovarian): > 100 µM | GI50 (SK-MEL-5 melanoma): 0.104 µM | TGI (SK-MEL-5 melanoma): > 100 µM

O=c1cc(-c2ccccc2)[nH]c2cc(Cl)ccc12
TGI (ACHN renal): 31 µM | TGI (CAKI-1 renal): 11.4 µM | TGI (HT29 colon): > 100 µM | TGI (LOX IMVI melanoma): 21.7 µM | TGI (M14 melanoma): > 100 µM | TGI (MOLT-4 leukemia): 15.9 µM | TGI (NCI-H226 lung): 56 µM | TGI (OVCAR-4 ovarian): > 100 µM | TGI (SK-MEL-5 melanoma): 19.6 µM

COc1ccc(CCc2cc(OC)c(O)c(OC)c2)cc1
TGI (ACHN renal): > 100 µM | TGI (CAKI-1 renal): > 100 µM | TGI (HT29 colon): > 100 µM | TGI (M14 melanoma): > 100 µM | TGI (MOLT-4 leukemia): > 100 µM | TGI (NCI-H226 lung): > 100 µM | TGI (OVCAR-4 ovarian): > 100 µM | TGI (SK-MEL-5 melanoma): > 100 µM

C1C[OH+]CC[OH+]CCNCC[OH+]CC[OH+]CCN1.Cl.[Cl-].[Pt+4]
GI50 (ACHN renal): > 100 µM | TGI (ACHN renal): > 100 µM | GI50 (CAKI-1 renal): > 100 µM | TGI (CAKI-1 renal): > 100 µM | GI50 (HT29 colon): > 100 µM | TGI (HT29 colon): > 100 µM | GI50 (LOX IMVI melanoma): > 100 µM | TGI (LOX IMVI melanoma): > 100 µM | GI50 (M14 melanoma): > 100 µM | TGI (M14 melanoma): > 100 µM | GI50 (MOLT-4 leukemia): > 100 µM | TGI (MOLT-4 leukemia): > 100 µM | GI50 (SK-MEL-5 melanoma): > 100 µM | TGI (SK-MEL-5 melanoma): > 100 µM

C[Si](C)(C)C(Sc1ccccc1)(Sc1ccccc1)Sc1ccccc1
TGI (ACHN renal): > 100 µM | TGI (CAKI-1 renal): > 100 µM | TGI (LOX IMVI melanoma): > 100 µM | TGI (MOLT-4 leukemia): > 100 µM | TGI (OVCAR-4 ovarian): > 100 µM | TGI (SK-MEL-5 melanoma): > 100 µM

Cc1ccc(S(=O)(=O)Nc2ccc(-c3cc(-c4cccc(F)c4)c(C#N)c(N)n3)cc2)cc1
GI50 (ACHN renal): 1.58 µM | TGI (ACHN renal): 2.92 µM | GI50 (CAKI-1 renal): 1.6 µM | TGI (CAKI-1 renal): 3.16 µM | GI50 (HT29 colon): 3.4 µM | TGI (HT29 colon): 12.3 µM | GI50 (LOX IMVI melanoma): 1.82 µM | TGI (LOX IMVI melanoma): 3.66 µM | GI50 (M14 melanoma): 2.01 µM | TGI (M14 melanoma): 4.38 µM | GI50 (MCF7 breast): 2.32 µM | TGI (MCF7 breast): 10 µM | GI50 (MOLT-4 leukemia): 3.2 µM | TGI (MOLT-4 leukemia): 30.2 µM | GI50 (OVCAR-4 ovarian): 1.77 µM | TGI (OVCAR-4 ovarian): 3.67 µM | GI50 (SK-MEL-5 melanoma): 1.77 µM | TGI (SK-MEL-5 melanoma): 3.23 µM

CCN=C(C#N)NCC
TGI (ACHN renal): > 100 µM | TGI (CAKI-1 renal): > 100 µM | TGI (HT29 colon): > 100 µM | TGI (LOX IMVI melanoma): > 100 µM | TGI (M14 melanoma): > 100 µM | TGI (MOLT-4 leukemia): > 100 µM | TGI (NCI-H226 lung): > 100 µM | TGI (OVCAR-4 ovarian): > 100 µM | TGI (SK-MEL-5 melanoma): > 100 µM

Cc1ccccc1C1CC(c2ccccc2)=NO1 (stereo unspecified)
TGI (ACHN renal): > 100 µM | TGI (CAKI-1 renal): > 100 µM | TGI (HT29 colon): > 100 µM | TGI (M14 melanoma): > 100 µM | TGI (MOLT-4 leukemia): > 100 µM | TGI (NCI-H226 lung): > 100 µM | TGI (OVCAR-4 ovarian): > 100 µM | TGI (SK-MEL-5 melanoma): > 100 µM

CCOC(=O)c1cccnc1C(OC(C)=O)OC(C)=O
TGI (ACHN renal): > 100 µM | TGI (CAKI-1 renal): > 100 µM | TGI (HT29 colon): > 100 µM | TGI (LOX IMVI melanoma): > 100 µM | TGI (M14 melanoma): > 100 µM | TGI (MOLT-4 leukemia): > 100 µM | TGI (NCI-H226 lung): > 100 µM | TGI (OVCAR-4 ovarian): > 100 µM | TGI (SK-MEL-5 melanoma): > 100 µM

COC(=O)/C(=N\NC(N)=O)C(C(=O)C=C(C)C)C(=O)C(=O)Nc1ccc(Cl)c(Cl)c1 (stereo unspecified)
TGI (ACHN renal): > 100 µM | TGI (CAKI-1 renal): > 100 µM | TGI (HT29 colon): > 100 µM | TGI (LOX IMVI melanoma): > 100 µM | TGI (M14 melanoma): > 100 µM | TGI (MOLT-4 leukemia): > 100 µM | TGI (NCI-H226 lung): > 100 µM | TGI (OVCAR-4 ovarian): > 100 µM | TGI (SK-MEL-5 melanoma): > 100 µM

COc1ccc2nc(NC(=O)C(=O)NNC(=O)c3ccncc3)sc2c1
TGI (ACHN renal): > 100 µM | TGI (CAKI-1 renal): > 100 µM | TGI (HT29 colon): > 100 µM | TGI (LOX IMVI melanoma): > 100 µM | TGI (M14 melanoma): > 100 µM | TGI (NCI-H226 lung): > 100 µM | TGI (OVCAR-4 ovarian): > 100 µM | TGI (SK-MEL-5 melanoma): > 100 µM

CC(C)C1N2CCCCC2[C@@H]2c3[nH]c4ccccc4c3CCN12 (stereo partly specified)
TGI (ACHN renal): > 100 µM | TGI (CAKI-1 renal): > 100 µM | TGI (HT29 colon): > 100 µM | TGI (M14 melanoma): > 100 µM | TGI (MOLT-4 leukemia): > 100 µM | TGI (OVCAR-4 ovarian): > 100 µM | TGI (SK-MEL-5 melanoma): > 100 µM

Fc1ccc(Nc2nc3ccccc3c3occc23)cc1
GI50 (ACHN renal): 1.4 µM | TGI (ACHN renal): 15.8 µM | GI50 (CAKI-1 renal): 1.89 µM | TGI (CAKI-1 renal): 5.24 µM | GI50 (LOX IMVI melanoma): 3.41 µM | TGI (LOX IMVI melanoma): 17.9 µM | GI50 (M14 melanoma): 0.873 µM | TGI (M14 melanoma): 13.7 µM | GI50 (MCF7 breast): 3.39 µM | TGI (MCF7 breast): 18.5 µM | GI50 (OVCAR-4 ovarian): 6 µM | TGI (OVCAR-4 ovarian): 25.5 µM | GI50 (SK-MEL-5 melanoma): 16.5 µM | TGI (SK-MEL-5 melanoma): 30.1 µM

Cc1cc(Cl)ccc1NC(=O)C(=O)C(C(=O)c1ccccc1)C1OC(=O)c2ccccc21 (stereo unspecified)
TGI (ACHN renal): > 100 µM | TGI (CAKI-1 renal): > 100 µM | TGI (HT29 colon): > 100 µM | TGI (LOX IMVI melanoma): > 100 µM | TGI (M14 melanoma): > 100 µM | TGI (MOLT-4 leukemia): > 100 µM | TGI (NCI-H226 lung): > 100 µM | TGI (OVCAR-4 ovarian): > 100 µM | TGI (SK-MEL-5 melanoma): > 100 µM

CCc1cccc(C)c1NC(=S)NC(=O)c1ccccc1C(=O)NC(=S)Nc1c(C)cccc1CC
TGI (ACHN renal): > 100 µM | TGI (CAKI-1 renal): > 100 µM | TGI (HT29 colon): > 100 µM | TGI (LOX IMVI melanoma): > 100 µM | TGI (M14 melanoma): > 100 µM | TGI (MOLT-4 leukemia): > 100 µM | TGI (NCI-H226 lung): > 100 µM | TGI (OVCAR-4 ovarian): > 100 µM | TGI (SK-MEL-5 melanoma): > 100 µM

CCOP1(=O)C=C(C)C(=C(Cl)Cl)C(C)=C1 (stereo unspecified)
TGI (ACHN renal): 68.1 µM | TGI (CAKI-1 renal): 49.3 µM | GI50 (HT29 colon): 6.6 µM | TGI (HT29 colon): 84.1 µM | GI50 (LOX IMVI melanoma): 22.8 µM | TGI (LOX IMVI melanoma): > 100 µM | GI50 (M14 melanoma): 10.7 µM | TGI (M14 melanoma): 24.6 µM | TGI (MOLT-4 leukemia): 42.9 µM | GI50 (NCI-H226 lung): 3.44 µM | TGI (NCI-H226 lung): 21.2 µM | TGI (OVCAR-4 ovarian): 29.1 µM
